pEC50, pIC50, pKd: −log10 of the molar value. The source made the active and inactive calls. The rule behind the calls is not given here.
Legend:
[1] = system: LoVo; test: Antiproliferative activity against human LoVo cells harboring KRAS G13D mutant assessed as inhibition of cell proliferation incubated for 7 days by CellTiterGlo-3D proliferation assay; format: functional, cell-based; settings: 168 h
[2] = system: NCI-H358; test: Antiproliferative activity against human NCI-H358 cells harboring KRAS G12C mutant assessed as inhibition of cell proliferation incubated for 7 days by CellTiterGlo-3D proliferation assay; format: functional, cell-based; settings: NCI-H358, 168 h
[3] = system: PANC-1; test: Antiproliferative activity against human PANC-1 cells harboring KRAS G12D mutant assessed as inhibition of cell proliferation incubated for 7 days by CellTiterGlo-3D proliferation assay; format: functional, cell-based; settings: PANC-1, 168 h
[4] = Toxicity in BALB/c nude mouse xenografted with human ASPC1 cells harboring KRAS G12D mutant assessed as body weight loss at 50 mg/kg, ip administered twice daily for 3 weeks; format: organism-based; settings: in vivo, 504 h
[5] = system: SW-620; test: Antitumor activity against human SW620 cells harboring KRAS G12V mutant xenografted in BALB/c nude mouse assessed as tumor growth inhibition at 50 mg/kg, ip administered twice daily for 2 weeks relative to control; format: functional; settings: SW-620, 336 h, read-out: TGI
[6] = system: ASPC1; test: Antiproliferative activity against human ASPC1 cells harboring KRAS G12D mutant assessed as inhibition of cell proliferation incubated for 7 days by CellTiterGlo-3D proliferation assay; format: functional, cell-based; settings: ASPC1, 168 h
[7] = system: SW-620; test: In vivo Inhibition of ERK in human SW620 cells harboring KRAS G12V mutant xenografted BALB/c nude mouse assessed as inhibition of ERK phosphorylation in tumor at 50 mg/kg, ip administered twice daily for 2 weeks by immunohistochemistry analysis; format: functional, organism-based
[8] = system: A549; test: Antiproliferative activity against human A549 cells harboring KRAS G12S mutant assessed as inhibition of cell proliferation incubated for 7 days by CellTiterGlo-3D proliferation assay; format: functional, cell-based; settings: A549, 168 h
[9] = system: MIA PaCa-2; test: Antiproliferative activity against human MIA PaCa-2 cells harboring KRAS G12C mutant assessed as inhibition of cell proliferation incubated for 7 days by CellTiterGlo-3D proliferation assay; format: functional, cell-based; settings: MIA PaCa-2, 168 h
[10] = system: ASPC1; test: In vivo Inhibition of ERK in human ASPC1 cells harboring KRAS G12D mutant xenografted BALB/c nude mouse assessed as inhibition of ERK phosphorylation in tumor at 50 mg/kg, ip administered twice daily for 3 weeks by immunohistochemical analysis; format: functional, organism-based
[11] = system: SW-620; test: In vivo Inhibition of ERK in human SW620 cells harboring KRAS G12V mutant xenografted BALB/c nude mouse assessed as inhibition of ERK phosphorylation at 50 mg/kg, ip administered twice daily for 2 weeks by Immunoblot analysis; format: functional, organism-based
[12] = system: SW-620; test: Antiproliferative activity against human SW620 cells harboring KRAS G12V mutant assessed as inhibition of cell proliferation incubated for 7 days by CellTiterGlo-3D proliferation assay; format: functional, cell-based; settings: SW-620, 168 h
[13] = Toxicity in BALB/c nude mouse xenografted with human SW620 cells harboring KRAS G12V mutant assessed as body weight loss at 50 mg/kg, ip administered twice daily for 2 weeks; format: organism-based, SW-620; settings: in vivo, 336 h
[14] = system: ASPC1; test: In vivo Inhibition of ERK in human ASPC1 cells harboring KRAS G12D mutant xenografted BALB/c nude mouse assessed as inhibition of ERK phosphorylation at 50 mg/kg, ip administered twice daily for 3 weeks by Immunoblot analysis; format: functional, organism-based
[15] = system: ASPC1; test: Antitumor activity against human ASPC1 cells harboring KRAS G12D mutant xenografted in BALB/c nude mouse assessed as tumor growth inhibition at 50 mg/kg, ip administered twice daily for 3 weeks relative to control; format: functional; settings: ASPC1, 504 h, read-out: TGI
[16] = biological target: T1, Son of sevenless homolog 1 (Homo sapiens) (UniProt Q07889); test: Co-operativity factor, ratio of Kd for binding affinity to GST-tagged human SOS1 (564 to 1049 reisudes) expressed in Escherichia coli BL21 (DE3) cells assessed as binary complex formation to Kd for binding affinity to GST-tagged human SOS1 (564 to 1049 residues) expressed in Escherichia coli BL21 (DE3) cells assessed as ternary complex formation in the presence of 6His tagged human VCB
T1 sequence (whole entry): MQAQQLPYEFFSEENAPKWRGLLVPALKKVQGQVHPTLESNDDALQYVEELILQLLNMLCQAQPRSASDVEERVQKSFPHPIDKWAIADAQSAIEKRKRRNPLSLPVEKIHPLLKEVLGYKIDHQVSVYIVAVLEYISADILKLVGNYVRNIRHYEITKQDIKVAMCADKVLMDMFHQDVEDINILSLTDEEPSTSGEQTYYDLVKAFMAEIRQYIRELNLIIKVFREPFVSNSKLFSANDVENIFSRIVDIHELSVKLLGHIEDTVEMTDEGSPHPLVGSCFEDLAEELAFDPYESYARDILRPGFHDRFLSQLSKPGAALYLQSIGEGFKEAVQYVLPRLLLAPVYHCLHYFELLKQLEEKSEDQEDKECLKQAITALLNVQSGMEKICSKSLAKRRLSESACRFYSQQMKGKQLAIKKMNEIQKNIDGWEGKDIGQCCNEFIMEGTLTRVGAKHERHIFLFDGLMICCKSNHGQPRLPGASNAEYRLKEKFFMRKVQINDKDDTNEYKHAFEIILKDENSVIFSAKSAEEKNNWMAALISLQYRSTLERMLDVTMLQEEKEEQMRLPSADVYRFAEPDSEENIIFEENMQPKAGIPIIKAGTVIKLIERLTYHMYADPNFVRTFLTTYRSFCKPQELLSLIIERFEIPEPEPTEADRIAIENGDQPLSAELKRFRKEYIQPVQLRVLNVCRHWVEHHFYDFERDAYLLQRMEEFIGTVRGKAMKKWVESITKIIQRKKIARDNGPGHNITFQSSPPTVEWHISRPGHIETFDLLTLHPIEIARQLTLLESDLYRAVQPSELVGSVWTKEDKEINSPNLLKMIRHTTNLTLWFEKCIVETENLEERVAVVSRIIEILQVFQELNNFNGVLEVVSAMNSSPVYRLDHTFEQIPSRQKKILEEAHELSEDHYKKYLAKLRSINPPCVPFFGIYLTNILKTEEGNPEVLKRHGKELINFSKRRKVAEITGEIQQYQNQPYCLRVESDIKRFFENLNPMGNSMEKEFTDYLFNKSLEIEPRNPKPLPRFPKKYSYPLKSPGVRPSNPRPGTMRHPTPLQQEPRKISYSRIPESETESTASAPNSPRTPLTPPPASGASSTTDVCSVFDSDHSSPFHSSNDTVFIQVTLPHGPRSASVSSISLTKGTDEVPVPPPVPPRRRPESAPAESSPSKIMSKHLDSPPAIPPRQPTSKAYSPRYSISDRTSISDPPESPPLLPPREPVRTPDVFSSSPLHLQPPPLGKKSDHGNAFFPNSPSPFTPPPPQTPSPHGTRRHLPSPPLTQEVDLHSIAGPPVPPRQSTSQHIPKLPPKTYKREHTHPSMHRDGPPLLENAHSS

[17] = biological target: T2, Son of sevenless homolog 1 (Homo sapiens, UniProt Q07889); test: (§1) Binding affinity to GST-tagged human SOS1 (564 to 1049 residues) expressed in Escherichia coli BL21 (DE3) cells assessed as binary complex formation by measuring dissociation constant incubated for 15 mins by fluorescence polarization-based displacement assay
T2 sequence (Q07889 whole entry): T1 sequence (whole entry)

[18] = biological target: von Hippel-Lindau disease tumor suppressor/Son of sevenless homolog 1/Elongin-B/Elongin-C (Homo sapiens) (UniProt Q07889+P40337+Q15370+Q15369); test: Binding affinity to GST tagged human SOS1(564 to 1049 residues)-6his tagged human VHL (54 to 213 residues)-human ElonginC (17 to 112 residues)-human ElonginB (1 to 104 residues) expressed in Escherichia coli BL21 (DE3) cells assessed as ternary complex formation by measuring maximal HTRF signals incubated for 15 mins by HTRF analysis
[19] = biological target: T3, von Hippel-Lindau disease tumor suppressor/Son of sevenless homolog 1 (Homo sapiens) (UniProt Q07889+P40337); test: PROTAC activity at VHL/SOS1 in human NCI-H358 cells assessed as induction of SOS1 protein degradation by measuring maximal efficacy at 2 to 2000 nM incubated for 24 hrs by Immunoblot analysis relative to control; format: cell-based; settings: dose 2-2000 nM
[20] = biological target: T2, Son of sevenless homolog 1; test: as §1, with “ternary” for “binary”, “mins in the presence of 6His tagged human VCB” for “mins”
[21] = biological target: T3, von Hippel-Lindau disease tumor suppressor/Son of sevenless homolog 1 (Homo sapiens); test: PROTAC activity at VHL/SOS1 in human NCI-H358 cells assessed as induction of SOS1 protein degradation at 1.0 uM incubated for 24 hrs by Immunoblot analysis relative to control; format: cell-based
[22] = biological target: T3, von Hippel-Lindau disease tumor suppressor/Son of sevenless homolog 1 (Homo sapiens); test: PROTAC activity at VHL/SOS1 in human NCI-H358 cells assessed as induction of SOS1 protein degradation at 0.1 uM incubated for 24 hrs by Immunoblot analysis relative to control; format: cell-based
[23] = biological target: von Hippel-Lindau disease tumor suppressor/Son of sevenless homolog 1 (Homo sapiens, UniProt P40337+Q07889); test: PROTAC activity at VHL/SOS1 in human NCI-H358 cells assessed as induction of SOS1 protein degradation incubated for 24 hrs by Immunoblot analysis; format: cell-based
[24] = biological target: T1, Son of sevenless homolog 1 (Homo sapiens); test: Induction of SOS1 degradation in human NCI-H358 cells at 0.1 to 1 uM incubated for 24 hrs by immunoblot analysis; format: cell-based; settings: dose 0.1-1 µM

Row | Ratio [16] | pKd [17] | Emax [19] | pKd [20] | Activity [21] | Activity [22] | Compound | pIC50 [1] | pIC50 [2] | pIC50 [3] | pIC50 [6] | pIC50 [8] | pIC50 [9] | pIC50 [12] | Activity [18] | also measured
1 | – | – | – | – | – | – | COc1cc2nc(C)nc(N[C@H](C)c3cc(N)cc(C(F)(F)F)c3)c2cc1O[C@H]1CCOC1 | 6.85 | 7.78 | 7.75 | 7.19 | 6.58 | 7.61 | 7.52 | – | Activity [4]: Non-Toxic; inhibition in vivo at 50 mg/kg [5]: 61.4%; inhibition [7]: Active; inhibition [10]: Active; inhibition [11]: Active; Activity [13]: Non-Toxic; inhibition [14]: Active; inhibition in vivo at 50 mg/kg [15]: 43.6%
2 | 2.8 | 7.12 | 42.9% | 7.57 | 37% | 16.4% | COc1cc2nc(C)nc(N[C@H](C)c3cc(N)cc(C(F)(F)F)c3)c2cc1C1CCN(C(=O)CCCCC(=O)N[C@H](C(=O)N2C[C@H](O)C[C@H]2C(=O)N[C@@H](C)c2ccc(-c3scnc3C)cc2)C(C)(C)C)CC1 | – | – | – | – | – | – | – | inactive | –
3 | 8.9 | 6.81 | 97.9% | 7.76 | 90.2% | 54.6% | COc1cc2nc(C)nc(N[C@H](C)c3cc(N)cc(C(F)(F)F)c3)c2cc1C1CCN(C(=O)COCCCC(=O)N[C@H](C(=O)N2C[C@H](O)C[C@H]2C(=O)N[C@@H](C)c2ccc(-c3scnc3C)cc2)C(C)(C)C)CC1 | – | – | – | – | – | – | – | – | pEC50 [23]: 7.31

Row | Compound | Ratio [16] | pKd [17] | Emax [19] | pKd [20] | Activity [21] | Activity [22] | pIC50 [1] | pIC50 [2] | pIC50 [3] | pIC50 [6] | pIC50 [8] | pIC50 [9] | pIC50 [12] | Activity [18] | also measured
4 | COc1cc2nc(C)nc(NC(C)c3cc(N)cc(C(F)(F)F)c3)c2cc1C1CCN(C(C)=O)CC1 (stereo not given) | – | 7.57 | – | 7.58 | – | – | 7.10 | 7.13 | 7.64 | 7.44 | 6.87 | 7.31 | 7.44 | inactive | Activity [24]: inactive

Source: ChEMBL document CHEMBL5247656, “Discovery of a Potent, Cooperative, and Selective SOS1 PROTAC ZZ151 with In Vivo Antitumor Efficacy in KRAS-Mutant Cancers” (J Med Chem, 2023)
